# Assay results taken from patent US9346815B2, “5-chloro-2-difluoromethoxyphenyl pyrazolopyrimidine compounds, compositions and methods of use thereof” (Genentech, Inc., priority 2014, dated 2016).
# Assays:
# [1] = target: isolated recombinant JAK1 kinase domain (Homo sapiens (Human), UniProt P23458); test: JAK1 enzyme assay (Caliper LabChip, peptide phosphorylation); assay type: biochemical; conditions: isolated recombinant JAK1 kinase domain, 25 μM ATP
# [2] = tested on: JAK1-dependent STAT6 phosphorylation downstream of IL-13 stimulation in TF-1 human erythroleukemia cells; test: JAK1 pathway assay in TF-1 cells (IL-13-pSTAT6, MSD); assay type: cell-based; conditions: Homo sapiens, TF-1, TF-1 cells, read-out: IL13-pSTAT6 EC50_TF-1
# Method in brief: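 TF-1 cells are starved of GM-CSF overnight and run in serum-free medium, while BEAS-2B cells stay in complete growth medium. Inhibition of STAT6 phosphorylation is measured by MSD.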
# [3] = target: isolated recombinant JAK2 kinase domain (Homo sapiens (Human), UniProt O60674); test: JAK2 enzyme assay (Caliper LabChip, peptide phosphorylation); assay type: biochemical; conditions: 25 μM ATP
# Sequence of isolated recombinant JAK2 kinase domain (O60674 849-1124): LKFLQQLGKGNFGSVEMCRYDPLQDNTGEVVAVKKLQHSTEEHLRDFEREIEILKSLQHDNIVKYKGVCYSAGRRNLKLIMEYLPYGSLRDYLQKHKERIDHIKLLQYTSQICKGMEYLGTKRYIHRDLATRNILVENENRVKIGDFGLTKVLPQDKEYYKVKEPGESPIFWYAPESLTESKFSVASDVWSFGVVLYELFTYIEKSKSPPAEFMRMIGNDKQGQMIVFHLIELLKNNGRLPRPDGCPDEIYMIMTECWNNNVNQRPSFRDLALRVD
# Sequence of isolated recombinant JAK1 kinase domain (P23458 875-1153): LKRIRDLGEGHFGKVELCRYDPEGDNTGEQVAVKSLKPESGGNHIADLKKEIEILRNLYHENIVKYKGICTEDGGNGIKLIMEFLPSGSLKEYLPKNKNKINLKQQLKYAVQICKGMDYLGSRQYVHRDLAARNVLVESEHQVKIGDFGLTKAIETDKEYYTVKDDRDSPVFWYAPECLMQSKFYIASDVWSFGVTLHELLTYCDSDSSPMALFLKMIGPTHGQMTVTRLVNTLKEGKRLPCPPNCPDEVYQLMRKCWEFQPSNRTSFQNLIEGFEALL
SMILES,Ki [1],EC50 [2],Ki [3]
"O=C(Nc1cn(CC(=O)N2CCC(CN3CCC(F)(F)CC3)(c3ccccc3)CC2)nc1-c1cc(Cl)ccc1OC(F)F)c1cnn2cccnc12 [Example 111, N-[3-[5-chloro-2-(difluoromethoxy)phenyl]-1-[2-[4-[(4,4-difluoro-1-piperidyl)methyl]-4-phenyl-1-piperidyl]-2-oxo-ethyl]pyrazol-4-yl]pyrazolo[1,5-a]pyrimidine-3-carboxamide]",3.1 nM,203 nM,10.6 nM
"Nc1nn2cccnc2c1C(=O)Nc1cn(C2CCN(CCCCc3ccccc3)CC2)nc1-c1cc(Cl)ccc1OC(F)F [Example 179, 2-amino-N-[3-[5-chloro-2-(difluoromethoxy)phenyl]-1-[1-(4-phenylbutyl)-4-piperidyl]pyrazol-4-yl]pyrazolo[1,5-a]pyrimidine-3-carboxamide]",3.04 nM,130 nM,0.9 nM
"CC(C)CN1CCC(n2cc(NC(=O)c3c(N)nn4cccnc34)c(-c3cc(Cl)ccc3OC(F)F)n2)CC1 [Example 174, 2-amino-N-[3-[5-chloro-2-(difluoromethoxy)phenyl]-1-(1-isobutyl-4-piperidyl)pyrazol-4-yl]pyrazolo[1,5-a]pyrimidine-3-carboxamide]",0.67 nM,12.3 nM,0.09 nM
"O=C(Nc1cn(C2CCN(CCCN3CCOCC3)CC2)nc1-c1cc(Cl)ccc1OC(F)F)c1cnn2cccnc12 [Example 158, N-[3-[5-chloro-2-(difluoromethoxy)phenyl]-1-[1-(3-morpholinopropyl)-4-piperidyl]pyrazol-4-yl]pyrazolo[1,5-a]pyrimidine-3-carboxamide]",2.12 nM,38.8 nM,0.26 nM
"CN(CCc1ccccn1)C1CCN(C(=O)Cn2cc(NC(=O)c3cnn4cccnc34)c(-c3cc(Cl)ccc3OC(F)F)n2)CC1 [Example 86, N-[3-[5-chloro-2-(difluoromethoxy)phenyl]-1-[2-[4-[methyl-[2-(2-pyridyl)ethyl]amino]-1-piperidyl]-2-oxo-ethyl]pyrazol-4-yl]pyrazolo[1,5-a]pyrimidine-3-carboxamide]",0.72 nM,25.2 nM,1.6 nM
"O=C(Nc1cn(CC(=O)N2CCC(NCCc3ccc(O)cc3)CC2)nc1-c1cc(Cl)ccc1OC(F)F)c1cnn2cccnc12 [Example 91, N-[3-[5-chloro-2-(difluoromethoxy)phenyl]-1-[2-[4-[2-(4-hydroxyphenyl)ethyl-amino]-1-piperidyl]-2-oxo-ethyl]pyrazol-4-yl]pyrazolo[1,5-a]pyrimidine-3-carboxamide]",0.75 nM,149 nM,1.15 nM
"O=C(Nc1cn(CC(=O)N2CCC(NC3CCC3)CC2)nc1-c1cc(Cl)ccc1OC(F)F)c1cnn2cccnc12 [Example 84, N-[3-[5-chloro-2-(difluoromethoxy)phenyl]-1-[2-[4-(cyclobutylamino)-1-piperidyl]-2-oxo-ethyl]pyrazol-4-yl]pyrazolo[1,5-a]pyrimidine-3-carboxamide]",0.91 nM,24.6 nM,1.47 nM
"CN(C)C[C@@H]1CCCN(C(=O)Cn2cc(NC(=O)c3c(N)nn4cccnc34)c(-c3cc(Cl)ccc3OC(F)F)n2)C1 [Example 82, 2-amino-N-[3-[5-chloro-2-(difluoromethoxy)phenyl]-1-[2-[(3S)-3-[(dimethylamino)methyl]-1-piperidyl]-2-oxo-ethyl]pyrazol-4-yl]pyrazolo[1,5-a]pyrimidine-3-carboxamide]",1.17 nM,8.7 nM,0.53 nM
"CCOC(=O)N1CCC(CN2C[C@@H]3CN(C(=O)Cn4cc(NC(=O)c5cnn6cccnc56)c(-c5cc(Cl)ccc5OC(F)F)n4)C[C@@H]3C2)CC1 [Example 23, ethyl 4-[[(3aS,6aR)-5-[2-[3-[5-chloro-2-(difluoromethoxy)phenyl]-4-(pyrazolo[1,5-a]pyrimidine-3-carbonylamino)pyrazol-1-yl]acetyl]-1,3,3a,4,6,6a-hexahydropyrrolo[3,4-c]pyrrol-2-yl]methyl]piperidine-1-carboxylate]",0.7 nM,8.6 nM,0.81 nM
"CN1CC[C@@H]2CN(C(=O)Cn3cc(NC(=O)c4cnn5cccnc45)c(-c4cc(Cl)ccc4OC(F)F)n3)C[C@@H]2C1 [Example 49, N-[1-[2-[(3aS,7aS)-5-methyl-3,3a,4,6,7,7a-hexahydro-1H-pyrrolo[3,4-c]pyridin-2-yl]-2-oxo-ethyl]-3-[5-chloro-2-(difluoromethoxy)phenyl]pyrazol-4-yl]pyrazolo[1,5-a]pyrimidine-3-carboxamide]",0.5 nM,11.3 nM,0.96 nM
"O=C(Nc1cn(CC(=O)N2CCC3(CCN(CC4CCN(C(=O)OCc5ccccc5)CC4)C3)CC2)nc1-c1cc(Cl)ccc1OC(F)F)c1cnn2cccnc12 [Example 226, benzyl 4-[[8-[2-[3-[5-chloro-2-(difluoromethoxy)phenyl]-4-(pyrazolo[1,5-a]pyrimidine-3-carbonylamino)pyrazol-1-yl]acetyl]-2,8-diazaspiro[4.5]decan-2-yl]methyl]piperidine-1-carboxylate]",0.41 nM,41.5 nM,1.11 nM
"CN1C[C@@H]2CN(Cc3nc(-c4cc(Cl)ccc4OC(F)F)c(NC(=O)c4cnn5cccnc45)s3)C[C@@H]2C1 [Example 262, N-[2-[[(3aR,6aS)-2-methyl-1,3,3a,4,6,6a-hexahydropyrrolo[3,4-c]pyrrol-5-yl]methyl]-4-[5-chloro-2-(difluoromethoxy)phenyl]thiazol-5-yl]pyrazolo[1,5-a]pyrimidine-3-carboxamide]",5.84 nM,62.7 nM,1.73 nM
"O=C(Nc1cn(CC(=O)N2CC[C@H]3CNC[C@H]3C2)nc1-c1cc(Cl)ccc1OC(F)F)c1cnn2cccnc12 [Example 21, N-[1-[2-[(3aS,7aR)-1,2,3,3a,4,6,7,7a-octahydropyrrolo[3,4-c]pyridin-5-yl]-2-oxo-ethyl]-3-[5-chloro-2-(difluoromethoxy)phenyl]pyrazol-4-yl]pyrazolo[1,5-a]pyrimidine-3-carboxamide]",0.47 nM,3040 nM,1.16 nM
"CC1(CN2C[C@@H]3CN(C(=O)Cn4cc(NC(=O)c5cnn6cccnc56)c(-c5cc(Cl)ccc5OC(F)F)n4)C[C@@H]3C2)COC1 [Example 39, N-[1-[2-[(3aR,6aS)-2-[(3-methyloxetan-3-yl)methyl]-1,3,3a,4,6,6a-hexahydropyrrolo[3,4-c]pyrrol-5-yl]-2-oxo-ethyl]-3-[5-chloro-2-(difluoromethoxy)phenyl]pyrazol-4-yl]pyrazolo[1,5-a]pyrimidine-3-carboxamide]",0.55 nM,6.6 nM,0.87 nM
"Nc1nn2cccnc2c1C(=O)Nc1cn(C2CCN(Cc3ccccc3)CC2)nc1-c1cc(Cl)ccc1OC(F)F [Example 178, 2-amino-N-[1-(1-benzyl-4-piperidyl)-3-[5-chloro-2-(difluoromethoxy)phenyl]pyrazol-4-yl]pyrazolo[1,5-a]pyrimidine-3-carboxamide]",1.23 nM,83.9 nM,0.43 nM
"CN(Cc1cccc(Oc2ccccc2)c1)C1CCN(C(=O)Cn2cc(NC(=O)c3cnn4cccnc34)c(-c3cc(Cl)ccc3OC(F)F)n2)CC1 [Example 113, N-[3-[5-chloro-2-(difluoromethoxy)phenyl]-1-[2-[4-[methyl-[(3-phenoxyphenyl)methyl]amino]-1-piperidyl]-2-oxo-ethyl]pyrazol-4-yl]pyrazolo[1,5-a]pyrimidine-3-carboxamide]",1.19 nM,30.6 nM,2.15 nM
"CN1CCN(c2ccc(-c3nc(-c4cc(Cl)ccc4OC(F)F)c(NC(=O)c4cnn5cccnc45)s3)cc2)CC1 [Example 258, N-[4-[5-chloro-2-(difluoromethoxy)phenyl]-2-[4-(4-methylpiperazin-1-yl)phenyl]thiazol-5-yl]pyrazolo[1,5-a]pyrimidine-3-carboxamide]",1.17 nM,71 nM,0.72 nM
"CN(Cc1ccc(Cl)cc1)C1CCN(C(=O)Cn2cc(NC(=O)c3cnn4cccnc34)c(-c3cc(Cl)ccc3OC(F)F)n2)CC1 [Example 126, N-[3-[5-chloro-2-(difluoromethoxy)phenyl]-1-[2-[4-[(4-chlorophenyl)methyl-methyl-amino]-1-piperidyl]-2-oxo-ethyl]pyrazol-4-yl]pyrazolo[1,5-a]pyrimidine-3-carboxamide]",0.63 nM,14.9 nM,1.8 nM
"CN1CCN(CCCN2CCC(n3cc(NC(=O)c4c(N)nn5cccnc45)c(-c4cc(Cl)ccc4OC(F)F)n3)CC2)C1=O [Example 164, 2-amino-N-[3-[5-chloro-2-(difluoromethoxy)phenyl]-1-[1-[3-(3-methyl-2-oxo-imidazolidin-1-yl)propyl]-4-piperidyl]pyrazol-4-yl]pyrazolo[1,5-a]pyrimidine-3-carboxamide]",0.44 nM,5.6 nM,0.06 nM
"CNC(=O)CCCN1CCC(n2cc(NC(=O)c3cnn4cccnc34)c(-c3cc(Cl)ccc3OC(F)F)n2)CC1 [Example 168, N-[3-[5-chloro-2-(difluoromethoxy)phenyl]-1-[1-[4-(methylamino)-4-oxo-butyl]-4-piperidyl]pyrazol-4-yl]pyrazolo[1,5-a]pyrimidine-3-carboxamide]",1.47 nM,7.7 nM,0.29 nM
"CCCCN(C)CC#Cc1nc(-c2cc(Cl)ccc2OC(F)F)c(NC(=O)c2cnn3cccnc23)s1 [Example 210, N-[2-[3-[butyl(methyl)amino]prop-1-ynyl]-4-[5-chloro-2-(difluoromethoxy)phenyl]thiazol-5-yl]pyrazolo[1,5-a]pyrimidine-3-carboxamide]",0.16 nM,240 nM,0.1 nM
